According to patent US20170088601A1, “CD133 EPITOPES” (CEDARS-SINAI MEDICAL CENTER, priority 2008, published 2017):

Experiments:
[1] = test system: HLA-A2 and CD133 positive cancer stem cells (CSC4); assay: IFN-γ ELISA of peptide-stimulated CTLs against cancer stem cells; format: cell-based, human; conditions: ELISA of supernatant
Procedure: (§1) The binding of the peptide-primed CTLs to HLA-A2 positive human cells was also tested. To generate dendritic cells, the plastic adherent cells from PBMCs were cultured in AIM-V medium supplemented with recombinant human GM-CSF and recombinant human IL-4 at 37° C. in a humidified incubator with 5% CO2. Six days later, the immature dendritic cells were stimulated with recombinant human TNF-alpha for maturation. Mature dendritic cells were then harvested on day 8, resuspended in PBS at 1×10^6/mL with the indicated peptides (2 μg/mL), and incubated for 2 hours at 37° C. Autologous PBMCs (2×10^6 per well) were cocultured with 2×10^5 per well peptide-pulsed dendritic cells in 2 mL/well of AIM-V medium supplemented with 5% human AB serum and 10 units/mL rhIL-7 (Cell Sciences) in each well of 24-well tissue culture plates.
(§2) On the next day and then every 3 days thereafter, 300 IU/ml of IL-2 was added to the medium. On day 7, lymphocytes were restimulated with autologous dendritic cells in AIM-V medium supplemented with 5% human AB serum, rhIL-2, and rhIL-7 (10 units/mL each). To generate peptide-specific CTLs, CD8 (+) T cells were isolated from healthy donors, then stimulated by autologous DC pulsed with peptide. After three cycle stimulations, these CTLs could efficiently recognize both HLA-A2 and CD133 positive cancer stem cells, as measured by amount of IFN-γ (pg/ml) in supernatant detected by ELISA (Table 2). However, they could not recognize the CD133 positive normal neural stem cells due to their absence of MHC expression.

T2 cells = assay: IFN-γ ELISA of peptide-stimulated CTLs against peptide-pulsed T2 cells; format: cell-based, human; conditions: ELISA of supernatant
Procedure: as §1, §2

[2] = molecular target: T1, HLA-A2 molecules (HLA-A*0201) on T2 cells (Homo sapiens, UniProt P04439, D140Y/D185E/D98H/E176V/E277Q/G131W/G231S/I119V/I121R/I166T/I218V/L300P/L318F/N151K/N90K/P208A/P217A/Q86G/Q94H/R138H/R169H/T345S); assay: Binding of peptides to HLA-A2 and stability of HLA-A*0201/peptide complexes on T2 cells (BB7.2 mAb staining)
T1 construct: mean fluorescence of peptide preincubated T2 cells; endogenous in cells; host or cells: T2 cells
Procedure: The cells were then incubated with Brefeldin A (Sigma, St. Louis, Mo.) at 10 μg/ml for 1 hour, washed, incubated at 37° C. for 0, 3, or 6 hours in the presence of Brefeldin A (0.5 μg/ml), and then stained with BB7.2 mAb. […] DC50 was defined as the time required for the loss of 50% of the HLA-A*0201/peptide complexes stabilized at t=0.

[3] = test system: CD8 (+) T cells from healthy donors; assay: HLA-A*0201/peptide tetramer staining of peptide-induced CTLs, flow cytometry; format: cell-based, human
Procedure: To generate peptide-specific CTLs, CD8 (+) T cells were isolated from healthy donors, then stimulated by autologous DC pulsed with peptide. Specific T cells were generated after PBMCs were stimulated by autologous DC pulsed with irradiated, apoptotic cancer stem cells (CSCs). Phycoerythrin-conjugated HLA-A*0201/peptide tetramers were synthesized. The cells were stained with tetramers (5 ng/ml) in PBS+0.5% human AB serum for 1 hour at room temperature, washed once in the same buffer, stained with anti-human CD8-FITC (BD Biosciences) mAbs for 30 minutes at 4° C. followed by flow cytometry analysis.

[4] = molecular target: T2, HLA-A2 molecules on T2 cells (Homo sapiens, UniProt P04439, D140Y/D185E/D98H/E176V/E277Q/G131W/G231S/I119V/I121R/I166T/I218V/L300P/L318F/N151K/N90K/P208A/P217A/Q86G/Q94H/R138H/R169H/T345S); assay: Binding of mouse CD133 peptide to HLA-A2 on T2 cells (BB7.2 mAb, flow cytometry); conditions: 0 μM, 10 μM or 100 μM peptide overnight
T2 construct: mean fluorescence of peptide preincubated T2 cells; endogenous in cells; host or cells: T2 cells
Procedure: The mouse counterpart of SEQ ID NO:1, […] (SEQ ID NO:11) also bound to HLA-A2, despite having only two amino acid residues in common. T2 cells were incubated overnight with 0 μM, 10 μM, or 100 μM of SEQ ID NO:11. The cells were then incubated with Brefeldin A (Sigma, St. Louis, Mo.) at 10 μg/ml for 1 hour, washed, incubated at 37° C. in the presence of Brefeldin A ([…]), and then stained with BB7.2 mAb. Fluorescence intensity was measured by flow cytometry.

FLLPALIFAV (Homo sapien) [CD133-804]
IFN-γ induced by PBMC stimulus for CTL generation, target CSC4 [1]: 450 pg/mL
IFN-γ induced by PBMC stimulus for CTL generation, target T2 + 117 (T2 cells): 275 pg/mL
IFN-γ induced by PBMC stimulus for CTL generation, target T2 + 301 (T2 cells): 148 pg/mL
IFN-γ induced by PBMC stimulus for CTL generation, target T2 + 405 (T2 cells): 294 pg/mL
IFN-γ induced by PBMC stimulus for CTL generation, target T2 + 708 (T2 cells): 247 pg/mL
IFN-γ induced by PBMC stimulus for CTL generation, target T2 + 804 (T2 cells): 409 pg/mL
IFN-γ induced by PBMC stimulus for CTL generation, target T2 only (T2 cells): 211 pg/mL

GLLERVTRI (Homo sapien) [CD133-708]
IFN-γ induced by PBMC stimulus for CTL generation, target CSC4 [1]: 403 pg/mL
IFN-γ induced by PBMC stimulus for CTL generation, target T2 + 117 (T2 cells): 281 pg/mL
IFN-γ induced by PBMC stimulus for CTL generation, target T2 + 301 (T2 cells): 234 pg/mL
IFN-γ induced by PBMC stimulus for CTL generation, target T2 + 405 (T2 cells): 326 pg/mL
IFN-γ induced by PBMC stimulus for CTL generation, target T2 + 708 (T2 cells): 286 pg/mL
IFN-γ induced by PBMC stimulus for CTL generation, target T2 + 804 (T2 cells): 258 pg/mL
IFN-γ induced by PBMC stimulus for CTL generation, target T2 only (T2 cells): 206 pg/mL

ILSAFSVYV (Homo sapien) [CD133-405]
IFN-γ induced by PBMC stimulus for CTL generation, target CSC4 [1]: 2311 pg/mL
DC50 (time required for the loss of 50% of the HLA-A*0201/peptide complexes stabilized at t=0) ([2]; 100 μM peptide): >6 h
Binding to HLA-A2 / HLA-A*0201 molecules (in words) ([2]; listed as SEQ ID NO:1): bound strongly
Binding to HLA-A2 / HLA-A*0201 molecules (in words) ([2]; listed as peptide 405): binds relatively strongly
Tetramer positive cell ([3]; CD8+ T cells stimulated by autologous DC pulsed with peptide, PE HLA-A*0201/peptide tetramer and anti-CD8-FITC): 3.72%
Immunogenicity (in words) ([3]; overall conclusion of Example 1): highly immunogenic
IFN-γ induced by PBMC stimulus for CTL generation, target T2 + 117 (T2 cells): 334 pg/mL
IFN-γ induced by PBMC stimulus for CTL generation, target T2 + 301 (T2 cells): 311 pg/mL
IFN-γ induced by PBMC stimulus for CTL generation, target T2 + 405 (T2 cells): 2450 pg/mL
IFN-γ induced by PBMC stimulus for CTL generation, target T2 + 708 (T2 cells): 394 pg/mL
IFN-γ induced by PBMC stimulus for CTL generation, target T2 + 804 (T2 cells): 390 pg/mL
IFN-γ induced by PBMC stimulus for CTL generation, target T2 only (T2 cells): 289 pg/mL

LLFIILMPLV (Homo sapien) [CD133-117]
IFN-γ induced by PBMC stimulus for CTL generation, target CSC4 [1]: 262 pg/mL
IFN-γ induced by PBMC stimulus for CTL generation, target T2 + 117 (T2 cells): 322 pg/mL
IFN-γ induced by PBMC stimulus for CTL generation, target T2 + 301 (T2 cells): 247 pg/mL
IFN-γ induced by PBMC stimulus for CTL generation, target T2 + 405 (T2 cells): 262 pg/mL
IFN-γ induced by PBMC stimulus for CTL generation, target T2 + 708 (T2 cells): 192 pg/mL
IFN-γ induced by PBMC stimulus for CTL generation, target T2 + 804 (T2 cells): 336 pg/mL
IFN-γ induced by PBMC stimulus for CTL generation, target T2 only (T2 cells): 275 pg/mL

MLLQVSHYL (Mus Musculus) [SEQ ID NO:11]
Cell fluorescence (binding to HLA-A2) [4]: increased in a dose-dependent manner

SLNDPLCLV (Homo sapien) [CD133-301]
IFN-γ induced by PBMC stimulus for CTL generation, target CSC4 [1]: 390 pg/mL
IFN-γ induced by PBMC stimulus for CTL generation, target T2 + 117 (T2 cells): 174 pg/mL
IFN-γ induced by PBMC stimulus for CTL generation, target T2 + 301 (T2 cells): 165 pg/mL
IFN-γ induced by PBMC stimulus for CTL generation, target T2 + 405 (T2 cells): 185 pg/mL
IFN-γ induced by PBMC stimulus for CTL generation, target T2 + 708 (T2 cells): 214 pg/mL
IFN-γ induced by PBMC stimulus for CTL generation, target T2 + 804 (T2 cells): 252 pg/mL
IFN-γ induced by PBMC stimulus for CTL generation, target T2 only (T2 cells): 179 pg/mL
